The numbers were not newly measured in patent US6713077B1, “Control of shoot/foliar feeding pests with pesticide seed treatments” (Monsanto Technology, LLC, priority 1999, dated 2004), which cites them from elsewhere.

For data set [1] the following is noted: cited from earlier work.
The conditions of data set [2]: cited from earlier work. This is another data set of the same source.

Read-outs that look alike come from different tables or passages of the source.

For the compound `C#CCN1CC(=O)N(COC(=O)[C@@H]2C(C=C(C)C)C2(C)C)C1=O` (mixture of isomers) [Imiprothrin], the Vapor pressure in data set [1] (25° C.) is 1.8 E-3 mPa. For `CC(C)[C@@H](Nc1ccc(C(F)(F)F)cc1Cl)C(=O)OC(C#N)c1cccc(Oc2ccccc2)c1` (mixture of isomers) [Tau-fluvalinate, (RS)-alpha-cyano-3-phenoxybenzyl(R)-2-[2-chloro-4-(trifluoromethyl)anilino]-3-methylbutanoate], the Water solubility in data set [2] (20° C.) was 1.03 ppb (20° C.). For the same compound, the Vapor pressure in data set [1] (temperature not given) is 9 E-8 mPa. As for `CC1(C)C(/C=C(\Cl)C(F)(F)F)C1C(=O)OC(C#N)c1cccc(Oc2ccccc2)c1` (racemic) [Cyhalothrin, [1α, 3α(Z)]-(±)-cyano-(3-phenoxyphenyl)methyl 3-(2-chloro-3,3,3-trifluoro-1-propenyl)-2,2-cimethylcyclopropanecarboxylate], the Water solubility in data set [2] (20° C.) is reported as 0.004 ppb (20° C.). Moreover, in data set [1] (temperature not given), the Vapor pressure is given as 0.001 mPa. For the compound `CC1(C)C(C=C(Cl)Cl)C1C(=O)OC(C#N)c1cccc(Oc2ccccc2)c1` (racemic) [Cypermethrin, (±) alpha-cyano-(3-phenoxyphenyl)methyl(+)-cis,trans-3-(2,2-dichloroethenyl)-2,2-dimethyl-cyclopropane carboxylate], the Vapor pressure in data set [1] (temperature not given) is reported as 2.3 E-4 mPa.

For the compound `CC(C)[C@H](C(=O)OC(C#N)c1cccc(Oc2ccccc2)c1)c1ccc(OC(F)F)cc1` (mixture of isomers) [Flucythrinate, (±)-cyano (3-phenoxyphenyl)methyl (±)-4-(difluoromethoxy)-alpha-(1-methylethyl) benzeneacetate], the Water solubility in data set [2] (21° C.) was 0.5 mg/l (21° C.). Moreover, the Vapor pressure in data set [1] (25° C.) was 0.0012 mPa.

As to `CC1(C)C(C=C(Cl)Cl)C1C(=O)OC(C#N)c1cccc(Oc2ccccc2)c1` (racemic) [Zeta-cypermethrin, S-cyano (3-phenoxyphenyl)methyl (±) cis/trans 3-(2,2-dichloroethenyl) 2,2 dimethylcyclopropane carboxylate], the Vapor pressure in data set [1] (temperature not given) is on record as 2.5 E-4 mPa. Turning to `CC1(C)[C@H](C(=O)O[C@H](C#N)c2cccc(Oc3ccccc3)c2)[C@@H]1/C=C\C(=O)OC(C(F)(F)F)C(F)(F)F` [Acrinathrin, (S)-alpha-cyano-3-phenoxybenzyl(Z)-(IR-cis)-2,2-dimethyl-3-[2-(2,2,2-trifluoro-trifluoromethyl-ethoxycarbonyl)vinyl]cyclopropane carboxylate], the Vapor pressure in data set [1] (temperature not given) is listed as 4.4 E-5 mPa. Consider `C=CCC1=C(C)C(OC(=O)C2C(C=C(C)C)C2(C)C)CC1=O` [Allethrin, (RS)-3-allyl-2-methyl-4-oxcyclopent-2-enyl-(1A,3R; 1R,3S)-2,2-dimethyl-3-(2-methylprop-1-enyl)cyclopropane carboxylate], for which the Water solubility result in data set [2] (in words) is on record as “practically insol”. In addition, in data set [1] (21° C.), the Vapor pressure was 0.16 mPa. Regarding `CC1(C)C(C=C(Cl)Cl)C1C(=O)OC(C#N)c1cccc(Oc2ccccc2)c1` (stereo not drawn) [Alpha cypermethrin, (IR cis) S and (IS cis) R enantiomer isomer pair of alpha-cyano-3-phenoxybenzyl-3-(2,2dichlorovinyl)-2,2-dimethylcyclopropane carboxylate], the Vapor pressure in data set [1] (temperature not given) was 2.3 E-2 mPa. Take `CC1(C)C(C=C(Cl)Cl)C1C(=O)OC(C#N)c1ccc(F)c(Oc2ccccc2)c1` (stereo not drawn) [Beta cyfluthrin]: the Water solubility in data set [2] (25° C.) is given as 1.2-2.1 μg/l (25° C.). The Vapor pressure in data set [1] (no unit, temperature not given) was 1.4 to 8.5 E-5.

Consider `CC1(C)[C@H](C=C(Cl)Cl)[C@H]1C(=O)O[C@@H](C#N)c1cccc(Oc2ccccc2)c1` [Beta-cypermethrin], for which the Vapor pressure in data set [1] (temperature not given) was 1.8 E-4 mPa. Take `C=CCC1=C(C)C(OC(=O)[C@@H]2[C@@H](C=C(C)C)C2(C)C)CC1=O` (stereo partly shown) [Bioallethrin]: the Water solubility in data set [2] (temperature not given) is 4.6 mg/L. The Vapor pressure in data set [1] (25° C.) is 43.9 mPa. Turning to `CC(C)=C[C@@H]1[C@@H](C(=O)OCc2coc(Cc3ccccc3)c2)C1(C)C` [Bioresmethrin, (1R-trans)-[5-(phenylmethyl)-3-furanyl]methyl 2,2-dimethyl-3-(2-methyl-1-propenyl)cyclopropanecarboxylate], the Water solubility in data set [2] (temperature not given) was under 0.3 mg/L. Moreover, the results for the Vapor pressure in data set [1] ((Tech.)) and in data set [1] ((d-resmethrin)) were 18.6 mPa and 0.45 mPa, respectively. As to `CCOc1ccc(C2(C(=O)OC(C#N)c3cccc(Oc4ccccc4)c3)CC2(Cl)Cl)cc1` (stereo not shown) [Cycloprothrin, cyano-(3-phenoxyphenyl)methyl 2,2-dichloro-1-(4-ethoxyphenyl)cyclopropane carboxylate], the Water solubility in data set [2] (25° C.) was 0.091 mg/l (25° C.). In addition, in data set [1] (20° C.), the Vapor pressure was 2.13 E-3 mPa.

Take `CC1(C)C(C=C(Cl)Cl)C1C(=O)OC(C#N)c1ccc(F)c(Oc2ccccc2)c1` (stereo not shown) [Cyfluthrin, cyano(4-fluoro-3-phenoxyphenyl)methyl 3-(2,2-dichloroethenyl)-2,2-dimethyl-cyclopropanedarboxylate]: the Water solubility in data set [2] (25° C.) is 2-4.3 μg/l (25° C.). For `CC(C)=CC1C(C(=O)OC(C#N)c2cccc(Oc3ccccc3)c2)C1(C)C` (stereo not shown) [Cyphenothrin], the Water solubility in data set [2] (25° C.) is given as <10 μg/l (25° C.). In data set [1] (20° C.), the Vapor pressure is 0.12 mPa. Take `CC1(C)[C@H](C(=O)O[C@H](C#N)c2cccc(Oc3ccccc3)c2)[C@@H]1C=C(Br)Br` [Deltamethrin, (s)-alpha-cyano-3-phenoxybenzyl (IR,3R)-3-(2,2-dibromovinyl)-2,2-dimethyl cyclopropanecarboxylate]: in data set [1] (temperature not given), the Vapor pressure is reported as 1.24 E-5 mPa. As for `C#CC(OC(=O)C1C(C=C(C)C)C1(C)C)/C(C)=C/CC` (stereo not shown) [Empenthrin], the Vapor pressure in data set [1] (23.6° C.) is 14 mPa.

Regarding `CC(C)[C@H](C(=O)O[C@H](C#N)c1cccc(Oc2ccccc2)c1)c1ccc(Cl)cc1` [Esfenvalerate, (S)-cyano (3-phenoxyphenyl) methyl (S)-4-chloro-alpha-(1-methylethyl)benzeneacetate], the Water solubility in data set [2] (temperature not given) is 0.002 mg/L. Besides, the Vapor pressure in data set [1] (temperature not given) is 2 E-4 mPa. As for `CC1(C)C(C(=O)OC(C#N)c2cccc(Oc3ccccc3)c2)C1(C)C` (stereo not drawn) [Fenpropathrin, alpha-cyano-3-phenoxybenzyl 2,2,3,3,-tetramethyl cyclopropoanecarboxylate], in data set [2] (25° C.), the Water solubility was 14.1 μg/l (25° C.). Also, in data set [1] (temperature not given), the Vapor pressure is given as 0.73 mPa. On to `CC(C)C(C(=O)OC(C#N)c1cccc(Oc2ccccc2)c1)c1ccc(Cl)cc1` (stereo not drawn) [Fenvalerate, (s)-cyano(3-phenoxyphenyl)methyl 4-chloro alpha (1-methylethyl)benzeneacetate], for which the Water solubility in data set [2] (temperature not given) is under 0.01 mg/L. Besides, the Vapor pressure in data set [1] (20° C.) is recorded as 1.92 E-2 mPa. Regarding `CC1(C)C(C=C(Cl)Cl)C1C(=O)OCc1cccc(Oc2ccccc2)c1` (stereo not drawn) [Permethrin, (3-phenoxyphenyl)-methyl(+)cis-trans-3-(2,2-dichoroethenyl)-2,2-dimethylcyclopropanecarboxylate], the Vapor pressure in data set [1] (temperature not given) is 0.07 mPa.

On to `CC(C)=CC1C(C(=O)OCc2cccc(Oc3ccccc3)c2)C1(C)C` (stereo not drawn) [Phenothrin, 3-phenoxybenzyl-d,l-cistrans 2,2-dimethyl-3-(2-methylpropenyl)cyclopropane carboxylate], for which the Water solubility in data set [2] (25° C.) is recorded as <9.7 μg/l (25° C.). In addition, the Vapor pressure in data set [1] (21.4° C.) is recorded as 1.9 E-2 mPa. In the case of `C#CCC1=C(C)C(OC(=O)C2C(C=C(C)C)C2(C)C)CC1=O` (stereo not shown) [Prallethrin], the Vapor pressure in data set [1] (23.1° C.) is listed as under 0.013 mPa. On to `CC(C)=CC1C(C(=O)OCN2C(=O)C3=C(CCCC3)C2=O)C1(C)C` (stereo not drawn) [Tetramethrin, 3,4,5,6-tetra hydro-phthalimidomethyl-(IRS)-cis-trans-chrysanthemate], for which the Vapor pressure in data set [1] (30° C.) was 0.944 mPa. Turning to `CC1(C)[C@H](C=C(Cl)Cl)[C@H]1C(=O)O[C@H](C#N)c1cccc(Oc2ccccc2)c1` [Theta cypermethrin], the Vapor pressure in data set [1] (temperature not given) is given as 1.8 E-4 mPa.

For `CC1(C)[C@H](C(=O)O[C@H](C#N)c2cccc(Oc3ccccc3)c2)[C@@H]1C(Br)C(Br)(Br)Br` (stereo partly shown) [Tralomethrin], the Vapor pressure in data set [1] (25° C.) is recorded as 4.6 E-6 mPa. On to `CC1(C)[C@H](C=C(Cl)Cl)[C@H]1C(=O)OCc1c(F)c(F)cc(F)c1F` [Transfluthrin], for which the Vapor pressure in data set [1] (temperature not given) is 0.4 mPa. For `CC(C)C(C(=O)OC(C#N)c1cccc(Oc2ccc(Br)cc2)c1)c1ccc(OC(F)F)cc1` (stereo not shown) [ZXI8901], the Vapor pressure in data set [1] (20° C.) is given as 1.6 E-4 mPa.
